Measured values published in patent US20170107579A1, “E1 ENZYME MUTANTS AND USES THEREOF” (Millennium Pharmaceuticals, Inc., priority 2011, published 2017).
Values belong to the compound of their own block, whether it stands above or below them.

Experiments:
[1] = test system: E204G OCI-Ly10 xenografts; assay: Antitumor study, re-implanted resistant xenograft in SCID mice; type: in vivo, mouse; conditions: re-implanted E204G OCI-Ly10 tumor, 90 mg/kg BID
Experimental: (§1) Female NCr Nude rats (Taconic Farms) aged 6-8 weeks were inoculated with 10×10^6 HCT-116 cells subcutaneously in the right flank. Tumor growth was measured using digital vernier calipers. […] Rats received one dose per day biweekly for 2 weeks (days 1, 4, 8, and 11) of a 21-day therapy cycle. After three cycles of treatment refractory tumors were collected. Female CB-17 SCID mice (Charles River Laboratories) aged 6-8 weeks were inoculated with 2×10^6 THP-1 or OCI-Ly10 cells with Matrigel™ support (1:1, v/v). […] Mice received two doses per day bi-weekly (days 1, 4, 8, 11, 15, 18, 22 . . . ) until tumors reached approximately 500-800 mm^3. Tumors were then collected and one 40-50 mg piece of tumor was subcutaneously implanted using a 13 gauge trocar needle into 6 to 8 naïve animals for further study. In addition tumor DNA was extracted for mutational analysis as described in supplementary information.

A573D UBA6 = target: T1, A573D UBA6 (Homo sapiens, UniProt A0AVT1, A573D); assay: UBA6 pyrophosphate exchange assay; type: biochemical; conditions: A573D UBA6 5 nM, 1 mM ATP, 4 μM ubiquitin
T1 construct: His6 (N); made in house; host or cells: Sf9 insect cells (baculovirus, single infection)
T1 sequence (A0AVT1 whole entry A573D): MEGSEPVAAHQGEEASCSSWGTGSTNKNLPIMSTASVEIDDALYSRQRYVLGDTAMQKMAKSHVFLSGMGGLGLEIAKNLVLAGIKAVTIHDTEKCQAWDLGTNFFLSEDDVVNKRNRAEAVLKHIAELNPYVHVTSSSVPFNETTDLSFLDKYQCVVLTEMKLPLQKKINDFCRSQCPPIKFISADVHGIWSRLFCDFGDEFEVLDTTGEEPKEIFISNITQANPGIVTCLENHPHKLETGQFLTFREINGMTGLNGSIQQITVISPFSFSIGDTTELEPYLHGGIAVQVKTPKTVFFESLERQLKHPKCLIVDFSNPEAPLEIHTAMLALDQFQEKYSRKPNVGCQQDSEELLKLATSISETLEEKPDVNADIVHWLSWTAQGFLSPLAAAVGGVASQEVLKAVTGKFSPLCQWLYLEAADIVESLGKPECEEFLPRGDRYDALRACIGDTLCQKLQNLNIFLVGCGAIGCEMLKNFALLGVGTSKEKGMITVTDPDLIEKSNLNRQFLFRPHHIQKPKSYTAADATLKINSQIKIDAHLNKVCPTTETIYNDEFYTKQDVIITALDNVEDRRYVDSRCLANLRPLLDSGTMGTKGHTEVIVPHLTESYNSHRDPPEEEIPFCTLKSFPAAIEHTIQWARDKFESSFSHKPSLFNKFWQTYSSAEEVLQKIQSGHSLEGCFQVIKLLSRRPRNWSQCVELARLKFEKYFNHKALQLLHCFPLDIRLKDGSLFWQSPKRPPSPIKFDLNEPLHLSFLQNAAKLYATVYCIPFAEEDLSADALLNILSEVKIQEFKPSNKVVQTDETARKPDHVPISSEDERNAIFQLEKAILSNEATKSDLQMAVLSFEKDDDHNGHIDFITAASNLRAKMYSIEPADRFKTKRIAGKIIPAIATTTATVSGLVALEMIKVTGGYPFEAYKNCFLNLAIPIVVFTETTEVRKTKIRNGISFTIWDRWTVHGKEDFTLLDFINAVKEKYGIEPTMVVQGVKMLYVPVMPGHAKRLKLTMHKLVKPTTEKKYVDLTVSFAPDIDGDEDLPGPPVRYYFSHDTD
Experimental: (§2) ATP and PPi titrations were run under similar condition, except ubiquitin was fixed at 4 μM. […] ATP standard curve.
(§3) Reactions were initiated with addition of 4 μM ubiquitin.

wild-type UBA6 = target: T2, wild-type UBA6 (Homo sapiens, UniProt A0AVT1); assay: UBA6 pyrophosphate exchange assay; type: biochemical; conditions: wt UBA6 5 nM, 1 mM ATP, 4 μM ubiquitin, 60 minutes at 30° C.
T2 construct: His6 (N); made in house; host or cells: Sf9 insect cells (baculovirus, single infection)
T2 sequence (A0AVT1 whole entry): as the sequence (A0AVT1 whole entry A573D) above, with D573A counted along it
Experimental: as §2, §3

A573T UBA6 = target: T3, A573T UBA6 (Homo sapiens, UniProt A0AVT1, A573T); assay: UBA6 pyrophosphate exchange assay; type: biochemical; conditions: A573T UBA6 5 nM, 1 mM ATP, 4 μM ubiquitin
T3 construct: His6 (N); made in house; host or cells: Sf9 insect cells (baculovirus, single infection)
T3 sequence (A0AVT1 whole entry A573T): as the sequence (A0AVT1 whole entry A573D) above, with D573T counted along it
Experimental: as §2, §3

A171T HCT-116 xenografts = assay: Antitumor study, re-transplanted resistant xenograft in nude rats; type: in vivo, rat; conditions: A171T HCT-116 xenograft, one cycle of 150 mg/kg (days 1, 4, 8, 11)
Experimental: as §1
The A171T NAEβ mutation was still present in this resistant xenograft model as confirmed by both Sanger and Sequenom methodologies.

NCI-H460 cells = assay: Cell viability assay, 96 hours ATPlite; type: cell-based; conditions: Homo sapiens, NCI-H460 parental cells
Experimental: (§4) Cell line cultures were maintained using appropriate cell culture media as recommended by ATCC and as previously reported (Soucy et al., 2009, Milhollen et al., 2010). […] Cell viability assays completed using 96 hours ATPlite assay (PerkinElmer) as previously reported (Soucy et al., 2009).

Calu-6 cells = assay: Cell viability assay, 96 hours ATPlite; type: cell-based; conditions: Homo sapiens, Calu-6 parental cells
Experimental: as §4

HCT-116 cells = assay: Cell viability assay, 96 hours ATPlite; type: cell-based; conditions: Homo sapiens, HCT-116 parental cells
Experimental: as §4

[2] = test system: HCT-116 WT, HCT-116.1 A171T and HCT-116.4 C324Y cells; assay: Drug efflux inhibitor co-incubation, ATPlite viability assay; type: cell-based
Experimental: Treatment of cells with efflux inhibitors. FIG. 8A. […] Co-incubation studies were performed with various inhibitors of drug efflux at their highest non toxic concentration.
Diypridamole (Sigma), MK571 (Tocris), GF918, K0143 (Tocris) and LY5979 were obtained from commercial sources indicated.

HCT-116 xenografts (WT) = assay: Antitumor study, subcutaneous xenografts in nude rats; type: in vivo
Experimental: as §1

[3] = as above; type: in vivo; conditions: female, NCr Nude, rat, in vivo, sc; immunocompromised rats, subcutaneously, days 1, 4, 8 and 11 of a 21 day cycle; read-out: maximum tolerated dose
Experimental: as §1

THP-1 AML xenografts = assay: Antitumor study, subcutaneous xenografts in CB-17 SCID mice; type: in vivo, mouse; conditions: THP-1 xenografts, 90 mg/kg BID, biweekly
Experimental: as §1

[4] = test system: OCI-Ly10 DLBCL xenografts; assay: as above; type: in vivo, mouse; conditions: 90 mg/kg BID bi-weekly
Experimental: as §1

[5] = test system: NEDD8-cullin levels in HCT-116 WT and A171T xenografts; assay: Pharmacodynamic marker analysis in tumor xenografts; type: in vivo, rat; conditions: single dose of 150 mg/kg
From the text: (§5) The relative levels of NEDD8-cullin and pIxBa were estimated by quantitative immunoblot analysis (Li-cor Odyssey system) using Alexa680-labelled anti-IgG (Molecular Probes) as the secondary antibody. For the analysis of CDT1 and cleaved caspase-3 levels in tumor sections, formalin-fixed, paraffin-embedded tumour sections were stained with the relevant antibodies, amplified with HRP-labelled secondary antibodies and detected with the ChromoMap DAB Kit (Ventana Medical Systems). Slides were counterstained with haematoxylin. Images were captured using an Eclipse E800 microscope (Nikon Instruments) and Retiga EXi colour digital camera (QImaging) and processed using Metamorph software (Molecular Devices). CDT1 and cleaved caspase-3 are expressed as a function of the DAB signal area.
The digests were analyzed on a LC/MS/MS system as previously described (Brownell et al., 2010).

[6] = test system: MLN4924 resistant Calu-6 clone; assay: Cell viability assay, 96 hours ATPlite, resistant clone; type: cell-based; conditions: Homo sapiens; one Calu-6 resistant clone
Experimental: (§6) FIG. 6A. Calu-6 and FIG. 6B.
as §4

A171T THP-1 xenografts = assay: Antitumor study, re-established resistant xenograft in SCID mice; type: in vivo, mouse; conditions: A171T THP-1 xenograft, 90 mg/kg BID bi-weekly
Experimental: as §1
The subcutaneous model was utilized to facilitate harvesting tumors for subsequent analysis. […] Three THP-1 xenografts contained a heterozygous mutation in NAEB at A171T, one contained a heterozygous mutation in at N209D and the remaining two were wild type for NAEB and so may be refractory through an alternate mechanism (FIG. 14A and Table 6).

[7] = test system: HCT-116 WT, A171T and G201V cells; assay: Cell cycle analysis (propidium iodide, flow cytometry); type: cell-based; conditions: HCT-116 resistant A171T and G201V clones, 1 μM, 24 hours
Experimental: Cell cycle analysis. FIG. 11A. HCT-116 WT, FIG. 11B. HCT-116.1 A171T and FIG. 11C.
Logarithmically growing cells were incubated with either MLN4924 or DMSO for the times indicated. Collected cells were fixed in 70% ethanol and stored overnight at 4° C. Fixed cells were centrifuged to remove ethanol, and the pellets were resuspended in propidium iodide and RNaseA in PBS for 1 h on ice protected from light. Cell-cycle distributions were determined using flow cytometry (FACS Calibur, Becton Dickinson) and analysed using Winlist software (Verity).

[8] = test system: NEDD8-cullin levels in A171T THP-1 xenografts; assay: Pharmacodynamic marker analysis in tumor xenografts; type: in vivo, mouse; conditions: single dose 90 mg/kg
From the text: as §5

[9] = test system: MLN4924 resistant NCI-H460 clones; assay: Cell viability assay, 96 hours ATPlite, resistant clones; type: cell-based; conditions: Homo sapiens; two NCI-H460 resistant clones
Experimental: as §6, §4

[10] = test system: NEDD8 pathway (NEDD8-cullin, NEDD8-NAEβ, NEDD8-Ubc12, CDT1, NRF2); assay: Western blot pathway analysis of treated cells; type: cell-based
Experimental: Whole cell extracts were prepared and immunoblotting assays performed as previously described (Soucy, 2009) with primary antibodies as follows: CDT1, NRF2, NEDD8, NAEβ, UBC12 and 4924-NEDD8-ADS (MIL22) (Millennium); UBC10 (Boston Biochem); K48 (Millipore); NAE1 (sigma) and tubulin (Santa Cruz). Secondary Alexa-680-labelled antibodies to rabbit/mouse IgG (Molecular Probes) were used as appropriate and blots were imaged using the Li-Cor Odyssey Infared Imaging system.
The reduced effect on NAE inhibition was confirmed by a reduced accumulation of two CRL substrates, Nrf2 and Cdt1.

[11] = test system: MLN4924 resistant HCT-116 cell clones; assay: Cell viability assay, 96 hours ATPlite, resistant clones; type: cell-based; conditions: for sensitivity of MLN4924 resistant clones to other chemotherapies: HCT-116 resistant clones, 96 hours ATPlite
Experimental: HCT-116 cells and resistant clones were treated with DMSO or various concentrations of FIG. 7A. bortezomib, FIG. 7B. doxorubicin or FIG. 7C. SN-38 for 96 hours and cell viability was assessed with ATPlite assay.
as §4

[12] = target: T4, UBA3 variant with A171T mutation (NAE) (Homo sapiens, UniProt Q8TBC4, A171T); assay: NAE HTRF assay, IC50 at KM for ATP (120 μM); type: biochemical
T4 construct: His; made in house; host or cells: E. coli Rosetta (DE3), co-expression
T4 sequence (Q8TBC4 whole entry A171T): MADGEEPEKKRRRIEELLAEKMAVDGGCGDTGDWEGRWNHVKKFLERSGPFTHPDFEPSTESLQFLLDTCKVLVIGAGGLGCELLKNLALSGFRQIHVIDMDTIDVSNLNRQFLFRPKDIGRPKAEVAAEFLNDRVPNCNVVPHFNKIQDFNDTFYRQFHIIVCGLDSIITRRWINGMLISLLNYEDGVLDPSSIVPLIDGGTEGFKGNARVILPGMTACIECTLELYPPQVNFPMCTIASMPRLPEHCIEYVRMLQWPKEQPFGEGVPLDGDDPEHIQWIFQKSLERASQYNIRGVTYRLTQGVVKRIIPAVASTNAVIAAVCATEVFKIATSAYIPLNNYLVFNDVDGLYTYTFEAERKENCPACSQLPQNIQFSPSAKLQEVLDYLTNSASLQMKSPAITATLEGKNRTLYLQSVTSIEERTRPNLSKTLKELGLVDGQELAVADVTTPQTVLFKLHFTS
T4 sequence (Q13564 whole entry partner): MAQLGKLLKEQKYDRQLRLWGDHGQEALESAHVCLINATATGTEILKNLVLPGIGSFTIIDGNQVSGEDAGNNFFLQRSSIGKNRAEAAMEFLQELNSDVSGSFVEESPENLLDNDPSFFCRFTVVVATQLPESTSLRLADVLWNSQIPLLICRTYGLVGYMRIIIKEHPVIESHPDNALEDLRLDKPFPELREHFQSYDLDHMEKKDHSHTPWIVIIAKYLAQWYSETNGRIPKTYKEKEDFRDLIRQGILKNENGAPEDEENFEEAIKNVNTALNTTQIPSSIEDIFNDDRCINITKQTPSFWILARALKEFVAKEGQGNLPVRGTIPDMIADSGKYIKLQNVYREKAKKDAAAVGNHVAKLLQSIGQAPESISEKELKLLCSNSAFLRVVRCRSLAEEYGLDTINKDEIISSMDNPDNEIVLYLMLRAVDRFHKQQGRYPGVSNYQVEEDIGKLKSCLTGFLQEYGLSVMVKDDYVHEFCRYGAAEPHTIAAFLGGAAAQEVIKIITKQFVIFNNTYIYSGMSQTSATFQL
T4 sequence (Q15843 1-76 partner limits assumed): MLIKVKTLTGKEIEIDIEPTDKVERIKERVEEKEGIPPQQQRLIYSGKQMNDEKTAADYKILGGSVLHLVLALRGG
Experimental: (§7) The enzyme reversibility assay was run in the FLAG-NEDD8-GST-UBC12 HTRF transthiolation assay described previously (Soucy et al., 2009, Brownell et al., 2010). Final concentrations of each enzyme after dilution were 10 pM WT NAEβ, 12.5 pM A171T NAEβ, 30 pM N209K NAEβ, and 33 pM E204K/G201V NAEβ.
(§8) IC50 measurements were performed in the HTRF assay described in Example 6. Assays for each enzyme were performed at their KM for ATP (20 μM for wild type, 120 μM for the A171T mutant).
(§9) An NAE enzymatic reaction totals 50 μL and contains 50 mM HEPES (pH 7.5), 0.05% BSA, 5 mM MgCl2, 20 μM ATP, 250 μM GSH, 0.01 μM UBC12-GST, 0.075 NEDD8-Flag and 0.28 nM recombinant human NAE enzyme. The enzymatic reaction mixture, with and without compound inhibitor, is incubated at 24° C. for 90 minutes in a 384-well plate before termination with 25 μL of Stop/Detection buffer (0.1M HEPES pH 7.5, 0.05% Tween20, 20 mM EDTA, 410 mM KF, 0.53 nM Europium-Cryptate labeled monoclonal anti-FLAG M2 antibody (CisBio International) and 8.125 μg/mL PHYCOLINK goat anti-GST allophycocyanin (XL-APC) antibody (Prozyme)). After incubation for 3 hours at 24° C., quantification of the FRET is performed on the Analyst™ HT 96.384 (Molecular Devices).

wild type UBA3 (NAE) = target: T5, wild type UBA3 (NAE) (Homo sapiens, UniProt Q8TBC4); assay: NAE HTRF assay, IC50 at KM for ATP (20 μM); type: biochemical; conditions: read-out: NAE WT IC50
T5 construct: His; made in house; host or cells: E. coli Rosetta (DE3), co-expression
T5 sequence (Q8TBC4 whole entry): as the sequence (Q8TBC4 whole entry A171T) above, with T171A counted along it
T5 sequence (Q13564 whole entry partner): as the sequence (Q13564 whole entry partner) above
T5 sequence (Q15843 1-76 partner limits assumed): as the sequence (Q15843 1-76 partner limits assumed) above
Experimental: as §7, §8, §9

SMILES: NS(=O)(=O)OC[C@@H]1C[C@@H](n2ccc3c(N[C@H]4CCc5ccccc54)ncnc32)C[C@@H]1O [MLN4924, ((1S,2S,4R)-4-{4-[(1S)-2,3-dihydro-1H-inden-1-ylamino]-7H-pyrrolo[2,3-d]pyrimidin-7-yl}-2-hydroxycyclopentyl)methyl sulphamate]
antitumor effect [1]: resistant
IC50 (A573D UBA6): > 100000 nM
IC50 (wild-type UBA6): 6200 ± 800 nM
IC50 (A573T UBA6): > 100000 nM
tumor growth inhibition (A171T HCT-116 xenografts): 38%
EC50 (NCI-H460 cells): 1070 nM
EC50 (Calu-6 cells): 80 nM
EC50 (HCT-116 cells): 46 nM
MLN4924 activity on co-incubation with drug efflux inhibitors ([2]; efflux inhibitors at highest non toxic concentration, 96 hours): unaffected
antitumor effect (HCT-116 xenografts (WT); WT HCT-116 xenografts, after first cycle, 150 mg/kg s.c.): tumor regressions
tumor growth inhibition (HCT-116 xenografts (WT); wild type HCT-116 xenografts, one cycle of 150 mg/kg (days 1, 4, 8, 11)): 94%
MTD [3]: 150 mg/kg
antitumor effect (THP-1 AML xenografts): uniform tumor regressions
antitumor effect [4]: tumor regressions
time of maximal inhibition of NEDD8-cullin levels post-dose ([5]; A171T HCT-116 resistant model): 8 h
time of maximal inhibition of NEDD8-cullin levels post dose ([5]; WT HCT-116 xenografts): 1 h
EC50 [6]: > 10000 nM
antitumor effect (A171T THP-1 xenografts): resistant
cell cycle distribution [7]: not significantly altered
inhibition of NEDD8-cullin levels [8]: minimal inhibition
EC50 [9]: > 10000 nM
inhibition of NEDD8 conjugation to NAEB, UBC12 and the cullin proteins ([10]; HCT-116 A171T and G201V clones compared to WT cells): reduced effect of inhibition
effect on the neddylation pathway and CRL substrate accumulation ([10]; NCI-H460 A171D and Calu-6 N209K clones): reduced potency
EC50 ([11]; Homo sapiens, four HCT-116 resistant clones): > 10000 nM

SMILES: CC(C)C[C@H](NC(=O)[C@H](Cc1ccccc1)NC(=O)c1cnccn1)B(O)O [bortezomib]
sensitivity of MLN4924 resistant clones to other chemotherapies [11]: remained sensitive

SMILES: COc1cc2c(cc1OC)CN(CCc1ccc(NC(=O)c3cccc4c(=O)c5cccc(OC)c5[nH]c34)cc1)CC2 [GF120918]
sensitization of cells to MLN4924 by Pgp, BCRP and MRP2 inhibitors ([2]; co-treatment with MLN4924, 96 hours): did not sensitize

IC50 ([12]; UBA3 A171T mutant, HTRF assay at KM for ATP, 120 μM): 250 nM
A171T/WT ([12]; ratio of IC50 A171T mutant to IC50 wild type): 7
IC50 (wild type UBA3 (NAE)): 37 nM
SMILES: Cc1ncnc2c1ccn2[C@@H]1C[C@@H](COS(N)(=O)=O)[C@@H](O)C1 [Compound I-46]

SMILES: COc1cccc2c1C(=O)c1c(O)c3c(c(O)c1C2=O)C[C@@](O)(C(=O)CO)C[C@@H]3O[C@H]1C[C@H](N)[C@H](O)[C@H](C)O1 [doxorubicin]
sensitivity of MLN4924 resistant clones to other chemotherapies [11]: remained sensitive
